Experiment [1] deals with Methicillin resistant Staphylococcus epidermidis (MRSE) ATCC 35984 NRS101. The experiment in a line: Antibacterial MIC assay, serial dilution. The following applies: for Selectivity index (CC50/MIC) MRSE 35984: CC50 Vero cells / MIC; for MIC: Staphylococcus epidermidis, read-out: MIC Methicillin resistant Staphylococcus epidermidis (MRSE) ATCC 35984 NRS101. It is filed as cell-based.

For experiment [2], the system named is Vancomycin resistant E. faecalis NR-31972 (VRE). In words: Antibacterial MIC assay, serial dilution. The class given is cell-based, Enterococcus faecalis. The following applies: for Selectivity index (CC50/MIC) VRE NR-31972: CC50 Vero cells / MIC; for MIC: Enterococcus faecalis, VRE, 24 h, read-out: MIC Vancomycin resistant E. faecalis NR-31972 (VRE). In short, it runs like this:
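MIC is the lowest concentration giving >90% growth inhibition by OD600, normalized to doxycycline and vehicle controls. Compounds were serially diluted to final 128–1 μg/mL against cultures diluted to OD600 0.004 in CAMHB and incubated at 37 °C for 16–18 h (VRE 24 h).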

The subject of another experiment is MRSA NRS384 (USA300). The experiment in a line: Multi-step resistance selection (serial passage). It is filed as cell-based, Staphylococcus aureus. As to conditions: 15 days of serial passaging; resistance = 4-fold shift in MIC. How it is done: culture serv ed as an untreated control. The cultures were aerobically maintai ned at 37°C in shaking incubator. At specifi c sampling times, aliquots were collected, resuspended in phosphate-buffered saline (PBS) and distributed to three replicates on tryptic soy agar (TSA). After a 24-hour incubation period at 37°C, the number of colony- forming units (CFUs) was evaluated.
F i g u re S 1. Time kill results against MRSA USA 300 at 5X and 10X MIC. Compound P3 ( 38) is shown as red squares, compound P5( 40) is shown as green tri angles. Vancomycin (inverted purple triangle) is used as a b act ericidal control and linezolid (orange diamond) as a bacteriostatic control with DMSO (blue circles ) as a neg ative control.
Multi-step resistance selection
To assess the ability of M R S A NRS384 (USA300) to develop resistance to P -NM and P-AM, a multi- step serial passage experiment was used, as described previously.4-6 MRSA strain was serially passaged with sub inhibitory concentrations of compounds and control drugs (Rifampicin and linezolid) in 1 5passages over a period of two weeks. Resistance was defined as a 4 -fold shift […]
F i g u re S 2.Multi -step resistance selection for blastimidine P3 ( 38) and blastimidine P5 (40) , rifampicin, and linezolid evaluated against methicillin -resistant S. aureus (MRSA) NRS384 (USA300) for 15days. […]

≈ marks a conversion by molar mass, not a printed value.

Regarding `CNc1ccc(C(=O)Nc2ccn([C@H]3C=C[C@H](NC(=O)C[C@@H](N)CCN(C)C(=N)N)[C@@H](C(=O)NCCc4ccccc4)O3)c(=O)n2)cc1` [Blastimidine P3], in experiment [1], the “Selectivity index (CC50/MIC) MRSE 35984” value is on record as greater than 32 and the minimum inhibitory concentration (MIC) amounted to 8 µg/mL (≈ 12.1 µM). Besides, in experiment [2], the “Selectivity index (CC50/MIC) VRE NR-31972” value is recorded as greater than 16 and the MIC turned out to be 16 µg/mL (≈ 24.3 µM). The “resistance development on serial passaging” value in the experiment with MRSA NRS384 (USA300) was “did not produce a resistant phenotype”.
The matching figures for `CN(CC[C@H](N)CC(=O)N[C@H]1C=C[C@H](n2ccc(NC(=O)c3ccc(NC(=O)[C@@](C)(N)CO)cc3)nc2=O)O[C@@H]1C(=O)NCCc1ccccc1)C(=N)N` [Blastimidine P5]: greater than 16, 16 µg/mL (≈ 21.5 µM), greater than 8.0, 32 µg/mL (≈ 42.9 µM) and “did not produce a resistant phenotype”.

In general, MIC refers to the smallest concentration in the dilution series that meets the test's criterion for growth inhibition.

The record behind these values is publication PMC12856912, “Structure-Guided Semisynthesis of Blasticidin S–Amicetin Chimeras as Selective Ribosome Inhibitors” (Journal of the American Chemical Society, 2026).
